The record followed here is patent EP3925956B1, “1H-INDAZOLE-3-CARBOXAMIDE DERIVATIVES AND RELATED COMPOUNDS AS FACTOR D INHIBITORS FOR TREATING DISEASES CHARACTERIZED BY ABERRANT COMPLEMENT SYSTEM ACTIVITY, SUCH AS E.G. IMMUNOLOGICAL DISORDERS” (BioCryst Pharmaceuticals, Inc., priority 2016, dated 2017).

The assay deals with Factor D (Homo sapiens, UniProt P00746). As to the kind of experiment: Factor D esterolytic assay.

Broadly, the IC50 is the concentration needed to halve the response being measured. Low readings indicate greater potency in that assay, high ones weaker potency in that assay.

Chain of Factor D (P00746 26-253): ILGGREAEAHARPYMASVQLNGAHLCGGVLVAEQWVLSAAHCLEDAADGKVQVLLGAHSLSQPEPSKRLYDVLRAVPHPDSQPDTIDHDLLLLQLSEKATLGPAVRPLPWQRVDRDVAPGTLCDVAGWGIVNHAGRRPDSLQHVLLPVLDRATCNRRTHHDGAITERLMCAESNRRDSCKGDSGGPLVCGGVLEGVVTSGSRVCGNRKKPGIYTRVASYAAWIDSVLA

`C[C@@H](O)[C@H](NC(=O)Cn1nc(C(N)=O)c2ccccc21)C(=O)NCc1cccc(Cl)c1F` [34d, 1-(2-(((2S,3R)-1-((3-chloro-2-fluorobenzyl)amino)-3-hydroxy-1-oxobutan-2-yl)amino)-2-oxoethyl)-1H-indazole-3-carboxamide] gave an IC50 of over 10 µM.

As for `Nc1ncnc2c1ccn2CC(=O)N(CC(=O)Nc1cccc(Br)n1)C1CC1` [56d, 2-(4-amino-7H-pyrrolo[2,3-d]pyrimidin-7-yl)-N-(2-((6-bromopyridin-2-yl)amino)-2-oxoethyl)-N-cyclopropylacetamide], the IC50 lay in the range of 1 to 10 µM. `CC(C)N(CC(=O)NCc1cccc(Cl)c1F)C(=O)Cn1cc(C#N)c2c(N)ncnc21` [60a, 2-(4-amino-5-cyano-7H-pyrrolo[2,3-d]pyrimidin-7-yl)-N-(2-((3-chloro-2-fluorobenzyl)amino)-2-oxoethyl)-N-isopropylacetamide] showed an IC50 of 1 to 10 µM.

Compound `Nc1ncnc2c1ccn2CC(=O)N(CC(=O)NCc1cccc(Cl)c1F)C1CC1` [63a, 2-(4-amino-7H-pyrrolo[2,3-d]pyrimidin-7-yl)-N-(2-((3-chloro-2-fluorobenzyl)amino)-2-oxoethyl)-N-cyclopropylacetamide] came in with an IC50 of 1 to 10 µM. Then `CC(C)N(CC(=O)NCc1cccc(Cl)c1F)C(=O)Cn1cc(C(N)=O)c2c(N)ncnc21` [65a, 4-amino-7-(2-((2-((3-chloro-2-fluorobenzyl)amino)-2-oxoethyl)(isopropyl)amino)-2-oxoethyl)-7H-pyrrolo[2,3-d]pyrimidine-5-carboxamide], with 1 to 10 µM; and `Nc1ncnc2c1cnn2CC(=O)N(CC(=O)NCc1cccc(Cl)c1F)C1CC1` [68a, 2-(4-amino-1H-pyrazolo[3,4-d]pyrimidin-1-yl)-N-(2-((3-chloro-2-fluorobenzyl)amino)-2-oxoethyl)-N-cyclopropylacetamide], with 1 to 10 µM; and `NC(=O)c1ncnc2c1ccn2CC(=O)N(CC(=O)Nc1cncc(Br)n1)C1CC1` [84a, 7-(2-((2-((6-bromopyrazin-2-yl)amino)-2-oxoethyl)(cyclopropyl)amino)-2-oxoethyl)-7H-pyrrolo[2,3-d]pyrimidine-4-carboxamide], with over 10 µM. Then `NC(=O)c1nn(CC(=O)N(CC(=O)NCc2cccc(Cl)c2F)[C@H]2C[C@@H](O)C2)c2ccccc12` [104b, 1-(2-((2-((3-chloro-2-fluorobenzyl)amino)-2-oxoethyl)((cis)-3-hydroxycyclobutyl)amino)-2-oxoethyl)-1H-indazole-3-carboxamide], with under 1 µM; and `NC(=O)c1nn(CC(=O)N(CC(=O)NCc2cccc(Cl)c2F)[C@H]2C[C@H](O)C2)c2ccccc12` [110b, 1-(2-((2-((3-chloro-2-fluorobenzyl)amino)-2-oxoethyl)((trans)-3-hydroxycyclobutyl)amino)-2-oxoethyl)-1H-indazole-3-carboxamide], with under 1 µM.

Turning to `CC(=O)c1cn(CC(=O)N(CC(=O)NCc2cccc(Cl)c2F)[C@H]2C[C@H](O)C2)c2ccc(Nc3cncnc3)cc12` [114a, 2-(3-acetyl-5-(pyrimidin-5-ylamino)-1H-indol-1-yl)-N-(2-((3-chloro-2-fluorobenzyl)amino)-2-oxoethyl)-N-((trans)-3-hydroxycyclobutyl)acetamide], the IC50 is under 1 µM. Then `CC(=O)c1cn(CC(=O)N(CC(=O)NCc2cccc(Cl)c2F)C(C)C)c2ccc(C#Cc3cccnc3)cc12` [131a, 2-(3-acetyl-5-(pyridin-3-ylethynyl)-1H-indol-1-yl)-N-(2-((3-chloro-2-fluorobenzyl)amino)-2-oxoethyl)-N-isopropylacetamide], with under 1 µM; and `CC(C)(C)OC(=O)N[C@H]1C[C@@H](N(CC(=O)NCc2cccc(Cl)c2F)C(=O)Cn2nc(C(N)=O)c3ccccc32)C1` [152b, tert-butyl ((cis)-3-(2-(3-carbamoyl-1H-indazol-1-yl)-N-(2-((3-chloro-2-fluorobenzyl)amino)-2-oxoethyl)acetamido)cyclobutyl)carbamate], with under 1 µM. In the case of `NC(=O)c1nn(CC(=O)N(CC(=O)NCc2cccc(Cl)c2F)[C@H]2C[C@@H](N)C2)c2ccccc12` [153a, 1-(2-(((cis)-3-aminocyclobutyl)(2-((3-chloro-2-fluorobenzyl)amino)-2-oxoethyl)amino)-2-oxoethyl)-1H-indazole-3-carboxamide], the IC50 is under 1 µM. In turn, `CC(C)(C)OC(=O)N[C@H]1C[C@H](CN(CC(=O)NCc2cccc(Cl)c2F)C(=O)Cn2nc(C(N)=O)c3ccccc32)C1` [161b, tert-butyl ((trans)-3-((2-(3-carbamoyl-1H-indazol-1-yl)-N-(2-((3-chloro-2-fluorobenzyl)amino)-2-oxoethyl)acetamido)methyl)cyclobutyl)carbamate] came in with an IC50 of 1 to 10 µM. Then `NC(=O)c1nn(CC(=O)N(CC(=O)NCc2cccc(Cl)c2F)C[C@H]2C[C@H](N)C2)c2ccccc12` [161c, 1-(2-((((trans)-3-aminocyclobutyl)methyl)(2-((3-chloro-2-fluorobenzyl)amino)-2-oxoethyl)amino)-2-oxoethyl)-1H-indazole-3-carboxamide], with under 1 µM; and `NC(=O)c1nn(CC(=O)N(CC(=O)NCc2cccc(Cl)c2F)[C@H]2C[C@H](N)C2)c2ccccc12` [169c, 1-(2-(((trans)-3-aminocyclobutyl)(2-((3-chloro-2-fluorobenzyl)amino)-2-oxoethyl)amino)-2-oxoethyl)-1H-indazole-3-carboxamide], with under 1 µM; and `CO[C@H]1C[C@H](N(CC(=O)NCc2cccc(Cl)c2F)C(=O)Cn2nc(C(N)=O)c3ccccc32)C1` [170b, 1-(2-((2-((3-chloro-2-fluorobenzyl)amino)-2-oxoethyl)((trans)-3-methoxycyclobutyl)amino)-2-oxoethyl)-1H-indazole-3-carboxamide], with under 1 µM. Then `NC(=O)c1nn(CC(=O)N(CC(=O)NCc2cccc(Cl)c2F)C[C@H]2C[C@H](O)C2)c2ccccc12` [172b, 1-(2-((2-((3-chloro-2-fluorobenzyl)amino)-2-oxoethyl)(((trans)-3-hydroxycyclobutyl)methyl)amino)-2-oxoethyl)-1H-indazole-3-carboxamide], with under 1 µM; and `CC(=O)c1nn(CC(=O)N(CC(=O)NCc2cccc(Cl)c2F)[C@H]2C[C@H](O)C2)c2ccc(Nc3cncnc3)cc12` [182a, 2-(3-acetyl-5-(pyrimidin-5-ylamino)-1H-indazol-1-yl)-N-(2-((3-chloro-2-fluorobenzyl)amino)-2-oxoethyl)-N-(trans-3-hydroxycyclobutyl)acetamide], with under 1 µM.

Regarding `CC(=O)c1nn(CC(=O)N(CC(=O)NCc2cccc(Cl)c2F)[C@H]2C[C@H](O)C2)c2ccccc12` [183a, 2-(3-acetyl-1H-indazol-1-yl)-N-(2-((3-chloro-2-fluorobenzyl)amino)-2-oxoethyl)-N-(trans-3-hydroxycyclobutyl)acetamide], the IC50 is under 1 µM.

The compound `N#Cc1cn(CC(=O)N(CC(=O)NCc2cccc(Cl)c2F)C2CC2)c2ccc(C(=O)NCc3ccccc3)cc12` [200i, N-benzyl-1-(2-((2-((3-chloro-2-fluorobenzyl)amino)-2-oxoethyl)(cyclopropyl)amino)-2-oxoethyl)-3-cyano-1H-indole-5-carboxamide] came in with an IC50 of 1 to 10 µM.
